Test results: patent US20240252677A1, “ONE-COMPONENT DELIVERY SYSTEM FOR NUCLEIC ACIDS” (The Trustees of the University of Pennsylvania, priority 2021, published 2024)

Columns and labels:
HEK293T cells = assay: In vitro Luc-mRNA transfection, luciferase luminescence expression in HEK293T cells; type: cell-based, human; set-up: unit not given here; conditions: Table 16; HEK 293T cells, 125 ng/well, n=3
Experimental: In Vitro Transfection Activity of DNPs in Human Embrionic Kidney (HEK) 293T Cells: HEK293T cells were seeded into 96-well plates (20,000 cells/well/200 μL) and cultured for 24 h at 37° C. in 5% CO2 complete cell culture media. Screening experiments were performed with nonoptimized DNPs containing naked nucleoside-modified mRNA (Karikó, et al., Immunity 2005, 23, 165-175; Pardi, et al., Methods Mol. Biol. 2013, 969, 29-42), of molar mass 664,341 encoding firefly luciferase (mRNA-Luc). A constant concentration of mRNA-Luc of 125 ng/well was used. The transIT (TransIT-mRNA transfection Kit from Mirus Bio) and MC3-based LNPs (MC3: DLin-MC3-DMA, which is the FDA approved LNP for mRNA delivery) were used as positive controls for cell transfection at a concentration of mRNA-Luc of 125 ng/well, identical to that of the tested DNPs. Subsequently cells were cultured for 24 h, the medium was aspirated under reduced pressure by a glass pipette and cells were lysed with 30 μL/well of cell culture lysis reagent (Promega). The luminescence intensity corresponding to the luciferase protein expressed was characterized and analyzed.
In vitro mRNA Delivery: Human embryonic kidney (HEK) 293T cells (American Type Culture Collection) were cultured in Dulbecco's modified Eagle's medium (DMEM) supplemented with 10% inactivated fetal bovine serum (FBS) (Gemini Bio-Products), 2 mM L-glutamine and 100 U/mL penicillin/streptomycin (Life Technologies) (complete medium). For in vitro screening experiments, HEK293T cells were seeded into 96-well plates (20,000 cells/well/200 μL) and cultured for 24 h in at 37° C. and 5% CO2 in complete media. Cell were transfected with IAJDs with encapsulated naked nucleoside-modified mRNA encoding firefly luciferase (mRNA-Luc) with fixed concentration of mRNA-Luc, 125 ng per well. The transIT (TransIT®-mRNA Transfection Kit, Mirus Bio) was used as a positive control for cell transfection, accordingly per manufacturer protocol and added to cells at the concentration of mRNA-Luc, 125 ng per well, the same as for tested particles. Cells were further cultured for 24 h, then medium was aspirated, and cells were lysed with 30 μL/well of cell culture lysis reagent (Promega). For the characterization of luminescence intensity, 2.5 μL of the lysed cells was mixed with 10 μL of luciferase assay substrate and luminescence was analyzed using a MiniLumat LB 9506 luminometer (Berthold/EG&G; Wallac).
Luminescence characterization for in vitro transfection experiments was performed by determining the luminescence intensity for in vitro Luc-mRNA transfection experiments using a MiniLumat LB 9506 luminometer (Berthold/EG&G; Wallac).
For in vitro Luc-mRNA transfection screening experiments, human embryonic kidney 293 cells (HEK 293) were seeded into 96-well plates (20,000 cells/well/200 μL) and cultured for 18-20 hours at 37° C., 5% CO2 in complete Dulbecco's modified Eagle's medium (DMEM) supplemented with 2 mM L-glutamine (Life Technologies), 100 U/mL penicillin/streptomycin (Invitrogen) and 10% fetal bovine serum (FBS, Gemini Bio-Products). Cells were transfected with DNPs with encapsulated naked nucleoside-modified mRNA encoding firefly luciferase (Luc-mRNA) at constant concentration of Luc-mRNA, 125 ng per well. Luc-mRNA complexed with TransIT (TransIT®-mRNA Transfection Kit, Mirus Bio) or encapsulated in FDA approved MC3-based LNPs were used as positive controls for cell transfection, at the concentration of Luc-mRNA of 125 ng per well, the same as for tested DNPs. After transfection cells were further cultured at 37° C., 5% CO2 for 18-20 hours, then medium was aspirated and cells were lysed with luciferase cell culture lysis reagent (30 μL/well) (Promega, Madison, WI). […]

[1] = pKa measurements of individual IAJD molecules by titration; type: physicochemical; conditions: ethanol saturated with NaCl, titrated with 0.1 M aqueous HCl; individual IAJD molecules, titration
Experimental: pKa measurements of individual IAJD Molecules was performed as follows. IAJD Molecules were first dissolved in ethanol (Sat. with NaCl) at a concentration of 1.5 mg/mL and the solution volume was 3 mL.
Then 0.1 M HCl solution was added to the above ethanol solution with an increment of 7.5 μL. The resulting pH after each addition of HCl solution was measured by an Thermo Scientific Orion Star A121 meter with Thermo Scientific Orion 8220BNWP pH probe. pKa was determined using the half equivalence point titration.

[2] = Stability of DNPs by DLS after storage at 5° C.; type: physicochemical; set-up: key: Excellent: the original sizes and distribution types remained almost the same after storage; Good: the original sizes and distribution types changed slightly (size difference was less than 100 nm) or the original size remained almost the same but the DLS curve showed more size distributions after storage
Experimental: The stability of the DNPs as assayed by DLS. All the samples are prepared in acetate buffer. The stabilities of the constructs were ranked: Excellent (in bold)—the original sizes and distribution remains almost the same after storage; Good—the original relatively big sizes became smaller or broad size distribution became narrower; Not stable—the original relatively big sizes or broad size distribution remained almost the similar level, or the original relatively small sizes became bigger or narrow size distribution became broader.

Row | SMILES | Luminescence (HEK293T cells) | pKa [1] | Ranking of stability ([2]; after 75 days at 5° C.) | Ranking of stability ([2]; after 62 days at 5° C.) | Ranking of stability ([2]; after 70 days at 5° C.) | Ranking of stability ([2]; after 42 days at 5° C.) | Ranking of stability ([2]; after 27 days at 5° C.) | Ranking of stability ([2]; after 35 days at 5° C.)
1 | CCCCCCCCCCCCCCCOc1cc(COC(=O)CCCN2CCN(C)CC2)cc(OCCCCCCCCCCC)c1 [IAJD 118, 3-(Pentadecyloxy)-5-(undecyloxy)benzyl 4-(4-methylpiperazin-1-yl)butanoate] | 568,354 | 6.33 | Excellent | – | – | – | – | –
2 | CCCCCCCCCCCCCCCOc1cc(COC(=O)CCCN2CCN(CCO)CC2)cc(OCCCCCCCCCCC)c1 [IAJD 119, 3-(Pentadecyloxy)-5-(undecyloxy)benzyl 4-(4-(2-hydroxyethyl)piperazin-1-yl)butanoate] | 565,906 | 6.44 | – | Good | – | – | – | –
3 | CCCCCCCCCCCCCCCCOc1cc(COC(=O)CCCN2CCN(CCO)CC2)cc(OCCCCCCCCCCC)c1 [IAJD 120, 3-(Hexadecyloxy)-5-(undecyloxy)benzyl 4-(4-(2-hydroxyethyl)piperazin-1-yl)butanoate] | 443,836 | 6.37 | – | – | Excellent | – | – | –
4 | CCCCCCCCCCCOc1cc(COC(=O)CCCN2CCN(CCO)CC2)cc(OCCCCCCCCC)c1 [IAJD 122, 3-(Nonyloxy)-5-(undecyloxy)benzyl 4-(4-(2-hydroxyethyl)piperazin-1-yl)butanoate] | 55,101 | 6.66 | – | Excellent | – | – | – | –
5 | CCCCCCCCCCCCOc1cc(COC(=O)CCCN2CCN(CCO)CC2)cc(OCCCCCCCCCCC)c1 [IAJD 124, 3-(Dodecyloxy)-5-(undecyloxy)benzyl 4-(4-(2-hydroxyethyl)piperazin-1-yl)butanoate] | 145,115 | 6.65 | – | Good | – | – | – | –
6 | CCCCCCCCCCCCCCOc1cc(COC(=O)CCCN2CCN(CCO)CC2)cc(OCCCCCCCCCCC)c1 [IAJD 125, 3-(Tetradecyloxy)-5-(undecyloxy)benzyl 4-(4-(2-hydroxyethyl)piperazin-1-yl)butanoate] | 119,405 | 6.64 | – | Excellent | – | – | – | –
7 | CCCCCCCCCCCCCCCCCOc1cc(COC(=O)CCCN2CCN(C)CC2)cc(OCCCCCCCCCCC)c1 [IAJD 126, 3-(Heptadecyloxy)-5-(undecyloxy)benzyl 4-(4-methylpiperazin-1-yl)butanoate] | 675 | 6.52 | – | – | Excellent | – | – | –
8 | CCCCCCCCCCCCCCCCCOc1cc(COC(=O)CCCN2CCN(CCO)CC2)cc(OCCCCCCCCCCC)c1 [IAJD 127, 3-(Heptadecyloxy)-5-(undecyloxy)benzyl 4-(4-(2-hydroxyethyl)piperazin-1-yl)butanoate] | 147,731 | 6.52 | – | Good | – | – | – | –
9 | CCCCCCCCCCCCCCCCCCOc1cc(COC(=O)CCCN2CCN(CCO)CC2)cc(OCCCCCCCCCCC)c1 [IAJD 128, 3-(Octadecyloxy)-5-(undecyloxy)benzyl 4-(4-(2-hydroxyethyl)piperazin-1-yl)butanoate] | 449,311 | 6.68 | – | – | Excellent | – | – | –
10 | CCCCCCCCCCCOc1cc(COC(=O)CCCN2CCN(CCO)CC2)cc(OCC(CC)CCCC)c1 (stereo not drawn) [IAJD 130, 3-((2-Ethylhexyl)oxy)-5-(undecyloxy)benzyl 4-(4-(2-hydroxyethyl)piperazin-1-yl)butanoate] | 76,345 | 6.62 | – | Excellent | – | – | – | –
11 | CCCCCCCCCCCCCCOc1cc(CNC(=O)CCCN2CCN(C)CC2)cc(OCCCCCCCCCCC)c1 [IAJD 133, 4-(4-Methylpiperazin-1-yl)-N-(3-(tetradecyloxy)-5-(undecyloxy)benzyl)butanamide] | 107,307 | 6.57 | – | – | – | Excellent | – | –
12 | CCCCCCCCCCCCCCCOc1cc(COC(=O)CCCN2CCN(C)CC2)cc(OCC(CC)CCCC)c1 (stereo not drawn) [IAJD 135, 3-((2-Ethylhexyl)oxy)-5-(pentadecyloxy)benzyl 4-(4-methylpiperazin-1-yl)butanoate] | 432 | 6.32 | – | – | – | – | Excellent | –
13 | CCCCCCCCCCCCCCCOc1cc(COC(=O)CCCN2CCN(CCO)CC2)cc(OCC(CC)CCCC)c1 (stereo not drawn) [IAJD 136, 3-((2-Ethylhexyl)oxy)-5-(pentadecyloxy)benzyl 4-(4-(2-hydroxyethyl)piperazin-1-yl)butanoate] | 283,656 | 6.5 | – | – | – | – | Excellent | –
14 | CCCCCCCCCCCCCCCOc1cc(COC(=O)CCCN2CCN(CCO)CC2)cc(OCCCCCCCC)c1 [IAJD 138, 3-(Octyloxy)-5-(pentadecyloxy)benzyl 4-(4-(2-hydroxyethyl)piperazin-1-yl)butanoate] | 102,620 | 6.62 | – | – | – | – | – | Good
15 | CCCCCCCCCCCCCCCOc1cc(COC(=O)CCCN2CCN(C)CC2)cc(OCCCCCCCCCC)c1 [IAJD 141, 3-(Decyloxy)-5-(pentadecyloxy)benzyl 4-(4-methylpiperazin-1-yl)butanoate] | 140,589 | 6.56 | – | – | – | – | Excellent | –
16 | CCCCCCCCCCCCCCCOc1cc(COC(=O)CCCN2CCN(CCO)CC2)cc(OCCCCCCCCCC)c1 [IAJD 142, 3-(Decyloxy)-5-(pentadecyloxy)benzyl 4-(4-(2-hydroxyethyl)piperazin-1-yl)butanoate] | 463,750 | 6.69 | – | – | – | – | Excellent | –
17 | CCCCCCCCCCCCCCCOc1cc(COC(=O)CCCN2CCN(C)CC2)cc(OCCCCCCCCCCCC)c1 [IAJD 143, 3-(Dodecyloxy)-5-(pentadecyloxy)benzyl 4-(4-methylpiperazin-1-yl)butanoate] | 71,851 | 6.33 | – | – | – | – | Excellent | –
18 | CCCCCCCCCCCCCCCOc1cc(COC(=O)CCCN2CCN(CCO)CC2)cc(OCCCCCCCCCCCC)c1 [IAJD 144, 3-(Dodecyloxy)-5-(pentadecyloxy)benzyl 4-(4-(2-hydroxyethyl)piperazin-1-yl)butanoate] | 253,672 | 6.51 | – | – | – | – | Excellent | –
19 | CCCCCCCCCCCCCCCOc1cc(COC(=O)CCCN2CCN(C)CC2)cc(OCCCCCCCCCCCCC)c1 [IAJD 145, 3-(pentadecyloxy)-5-(tridecyloxy)benzyl 4-(4-methylpiperazin-1-yl)butanoate] | 296 | 6.28 | – | – | – | – | Excellent | –
